{
  "source": "patent US20240270762A1",
  "about": "“PENICILLIN-BINDING PROTEIN INHIBITORS” (priority 2021, published 2024)",
  "key": {"N. gonorrhoeae MS11": {"tested_on": "N. gonorrhoeae MS11", "assay": "Liquid broth MIC in Fastidious broth", "conditions": "Neisseria gonorrhoeae, MS11, read-out: Minimum Inhibitory Concentration (MIC), N. gonorrhoeae MS11"}, "A. baumannii CDC-0033": {"tested_on": "A. baumannii CDC-0033", "assay": "microbe, parasite or virus in culture", "type": "cell-based", "conditions": "Acinetobacter baumannii, CDC0033, read-out: MIC, A. baumannii CDC-0033"}, "P. aeruginosa CDC-0054": {"tested_on": "P. aeruginosa CDC-0054", "assay": "microbe, parasite or virus in culture", "type": "cell-based", "conditions": "Pseudomonas aeruginosa, CDC0054, read-out: Minimum inhibitory concentration, P. aeruginosa CDC-0054"}, "A. baumannii ATCC 17978": {"tested_on": "A. baumannii ATCC 17978", "assay": "microbe, parasite or virus in culture", "type": "cell-based", "conditions": "Acinetobacter baumannii, ATCC17978, read-out: MIC, A. baumannii ATCC 17978"}, "N. gonorrhoeae WHO Z": {"tested_on": "N. gonorrhoeae WHO Z", "assay": "Liquid broth MIC in Fastidious broth", "conditions": "Neisseria gonorrhoeae, read-out: Minimum Inhibitory Concentration (MIC), N. gonorrhoeae WHO Z"}, "[1]": {"target": "T1, PBP3 from Escherichia coli (K-12) (Escherichia coli, UniProt P0AD68)", "T1 construct": "made in house", "T1 sequence (P0AD68 1-577)": "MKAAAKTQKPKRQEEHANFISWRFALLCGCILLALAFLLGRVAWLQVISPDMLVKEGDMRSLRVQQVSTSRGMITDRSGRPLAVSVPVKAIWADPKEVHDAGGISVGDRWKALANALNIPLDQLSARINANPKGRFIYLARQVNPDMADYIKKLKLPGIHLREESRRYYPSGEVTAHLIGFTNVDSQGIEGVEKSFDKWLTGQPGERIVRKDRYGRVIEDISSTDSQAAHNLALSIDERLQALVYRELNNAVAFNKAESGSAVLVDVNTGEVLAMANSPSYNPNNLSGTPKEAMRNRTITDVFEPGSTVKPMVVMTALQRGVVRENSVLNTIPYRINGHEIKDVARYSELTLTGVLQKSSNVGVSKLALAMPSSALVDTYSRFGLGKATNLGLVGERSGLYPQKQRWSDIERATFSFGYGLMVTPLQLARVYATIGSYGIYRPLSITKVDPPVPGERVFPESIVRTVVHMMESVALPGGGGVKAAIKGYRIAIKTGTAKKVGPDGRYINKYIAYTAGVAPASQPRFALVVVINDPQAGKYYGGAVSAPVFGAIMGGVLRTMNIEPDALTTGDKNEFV", "assay": "Bocillin-FL fluorescence polarization competition binding, E. coli PBP3", "how_it_was_run": "(§1)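 Purified PBPs pre-incubated with inhibitor (E. coli PBP3 1.5 μM, 30 min; P. aeruginosa PBP3 0.75 μM, A. baumannii PBP1a 1 μM and PBP3 0.2 μM, 15 min), then Bocillin-FL 0.1 μM (0.05 μM for PBP1a) added; FP read up to 60 min. EC50 = concentration halving bound Bocillin-FL.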"}, "[2]": {"tested_on": "B. humptydooensis ATCC BAA-2767", "assay": "microbe, parasite or virus in culture", "type": "cell-based", "conditions": "Burkholderia humptydooensis, ATCCBAA2767, read-out: Minimum inhibitory concentration (MIC), B. humptydooensis ATCC BAA-2767"}, "[3]": {"target": "T2, PBP3 from Pseudomonas aeruginosa (PAO1) (Pseudomonas aeruginosa, UniProt G3XD46)", "T2 construct": "made in house", "T2 sequence (G3XD46 whole entry)": "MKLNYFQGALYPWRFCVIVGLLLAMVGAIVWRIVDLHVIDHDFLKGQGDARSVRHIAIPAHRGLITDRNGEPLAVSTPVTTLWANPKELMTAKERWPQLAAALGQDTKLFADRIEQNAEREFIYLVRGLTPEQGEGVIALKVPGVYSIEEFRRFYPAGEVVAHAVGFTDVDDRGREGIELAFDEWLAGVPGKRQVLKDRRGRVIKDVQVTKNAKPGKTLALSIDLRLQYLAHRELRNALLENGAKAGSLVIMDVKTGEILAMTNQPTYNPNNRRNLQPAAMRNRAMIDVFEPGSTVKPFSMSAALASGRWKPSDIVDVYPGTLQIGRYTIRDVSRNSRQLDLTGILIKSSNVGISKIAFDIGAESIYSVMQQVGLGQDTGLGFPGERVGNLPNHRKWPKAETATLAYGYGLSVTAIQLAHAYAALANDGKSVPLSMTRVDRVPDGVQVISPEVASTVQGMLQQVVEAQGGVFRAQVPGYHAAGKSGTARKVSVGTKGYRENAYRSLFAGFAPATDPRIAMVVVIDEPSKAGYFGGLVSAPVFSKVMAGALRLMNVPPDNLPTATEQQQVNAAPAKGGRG", "assay": "Bocillin-FL fluorescence polarization competition binding, P. aeruginosa PBP3", "conditions": "Binding affinity to P. aeruginosa PBP3; fluorescence polarization competition binding assay using Bocillin-FL; read-out: P. aeruginosa PBP3 Potency", "how_it_was_run": "as §1"}, "N. gonorrhoeae WHO K": {"tested_on": "N. gonorrhoeae WHO K", "assay": "Liquid broth MIC in Fastidious broth", "conditions": "Neisseria gonorrhoeae, read-out: Minimum Inhibitory Concentration (MIC), N. gonorrhoeae WHO K"}, "P. aeruginosa ATCC 27853": {"tested_on": "P. aeruginosa ATCC 27853", "assay": "microbe, parasite or virus in culture", "type": "cell-based", "conditions": "Pseudomonas aeruginosa, ATCC27853, read-out: Minimum inhibitory concentration, P. aeruginosa ATCC 27853"}, "N. gonorrhoeae WHO L": {"tested_on": "N. gonorrhoeae WHO L", "assay": "Liquid broth MIC in Fastidious broth", "conditions": "Neisseria gonorrhoeae, read-out: Minimum Inhibitory Concentration (MIC), N. gonorrhoeae WHO L", "experimental": "Liquid broth-based assays were used for antibacterial testing of PBP inhibitors in Neisseria gonorrhoeae. Briefly, cryo-preserved bacterial cultures of clinical strains were streaked for isolation on Chocolate Agar (72 g/L (2×) GC Agar Base (BD #228950) and 2% (2×) Hemoglobin was autoclaved at 121° C. for 20 minutes to sterilize. Once cooled to ˜50° C. the 2×GC Agar Base and 2× Hemoglobin solutions are combined and 1% IsoVitaleX Enrichment (BD #211876) was added to the solution). Strains were incubated at 36° C. and 5% CO2 to allow growth of colonies, 24 hours before inoculum preparation. 2-fold serial dilutions of test compounds were conducted in a 96 well plate with a final volume of 75 μL per well at 2-fold the final desired concentration in Fastidious broth (Remel #R07664). For preparation of assay inoculum, a direct suspension was prepared by aseptically swabbing 10-15 colonies from agar plates into culture tubes containing 2 mL of fresh sterile saline. After the dilution plates were set up, direct suspensions were then diluted in a cuvette containing sterile saline and the optical density was measured at 600 nm. Inocula were diluted such that 75 μL of this culture in Fastidious broth results in a starting bacterial concentration of 5×10^5 CFU/mL when added to the dilution plates. The plates were incubated for ˜24 hours at 36° C. and 5% CO2."}, "N. gonorrhoeae FA1090": {"tested_on": "N. gonorrhoeae FA1090", "assay": "Liquid broth MIC in Fastidious broth", "conditions": "Neisseria gonorrhoeae, FA1090, read-out: Minimum Inhibitory Concentration (MIC), N. gonorrhoeae FA 1090"}, "P. aeruginosa CDC-0110": {"tested_on": "P. aeruginosa CDC-0110", "assay": "microbe, parasite or virus in culture", "type": "cell-based", "conditions": "Pseudomonas aeruginosa, CDC0110, read-out: Minimum inhibitory concentration, P. aeruginosa CDC-0110"}, "P. aeruginosa CDC-0095": {"tested_on": "P. aeruginosa CDC-0095", "assay": "microbe, parasite or virus in culture", "type": "cell-based", "conditions": "Pseudomonas aeruginosa, CDC0095, read-out: Minimum inhibitory concentration, P. aeruginosa CDC-0095"}, "A. baumannii CDC-0036": {"tested_on": "A. baumannii CDC-0036", "assay": "microbe, parasite or virus in culture", "type": "cell-based", "conditions": "Acinetobacter baumannii, CDC0036, read-out: MIC, A. baumannii CDC-0036"}},
  "data": [
    {"smiles": "CN(CCN1CCN(C(=O)NC(C(=O)N[C@H]2Cc3ccc(F)c(C(=O)O)c3OB2O)c2cc(F)c(O)c(O)c2Cl)C(=O)C1=O)S(=O)(=O)c1cccc(C(N)=O)c1", "note": "(stereo partly drawn) [Example 224, (3R)-3-(2-(4-(2-((3-carbamoyl-N-methylphenyl)sulfonamido)ethyl)-2,3-dioxopiperazine-1-carboxamido)-2-(2-chloro-5-fluoro-3,4-dihydroxyphenyl)acetamido)-7-fluoro-2-hydroxy-3,4-dihydro-2H-benzo[e][1,2]oxaborinine-8-carboxylic acid]", "values": [
      {"measurement": "MIC", "setting": "N. gonorrhoeae MS11", "result": "> 64", "unit": "µg/mL"},
      {"measurement": "MIC", "setting": "A. baumannii CDC-0033", "result": "8 to 16", "unit": "µg/mL"},
      {"measurement": "MIC", "setting": "P. aeruginosa CDC-0054", "result": "2 to 4", "unit": "µg/mL"},
      {"measurement": "MIC", "setting": "A. baumannii ATCC 17978", "result": "< 1", "unit": "µg/mL"},
      {"measurement": "MIC", "setting": "N. gonorrhoeae WHO Z", "result": "> 64", "unit": "µg/mL"},
      {"measurement": "EC50", "setting": "[1]", "result": "< 10", "unit": "µM"},
      {"measurement": "MIC", "setting": "[2]", "result": "< 1", "unit": "µg/mL"},
      {"measurement": "IC50", "setting": "[3]", "result": "< 10", "unit": "µM"},
      {"measurement": "MIC", "setting": "N. gonorrhoeae WHO K", "result": "> 64", "unit": "µg/mL"},
      {"measurement": "MIC", "setting": "P. aeruginosa ATCC 27853", "result": "2 to 4", "unit": "µg/mL"},
      {"measurement": "MIC", "setting": "N. gonorrhoeae WHO L", "result": "> 64", "unit": "µg/mL"},
      {"measurement": "MIC", "setting": "N. gonorrhoeae FA1090", "result": "4 to 8", "unit": "µg/mL"},
      {"measurement": "MIC", "setting": "P. aeruginosa CDC-0110", "result": "< 1", "unit": "µg/mL"},
      {"measurement": "MIC", "setting": "P. aeruginosa CDC-0095", "result": "2 to 4", "unit": "µg/mL"},
      {"measurement": "MIC", "setting": "A. baumannii CDC-0036", "result": "8 to 16", "unit": "µg/mL"}
    ]},
    {"smiles": "O=C(NCCCN1CCN(C(=O)NC(C(=O)N[C@H]2Cc3ccc(F)c(C(=O)O)c3OB2O)c2cc(F)c(O)c(O)c2Cl)C(=O)C1=O)Nc1cccnc1", "note": "(stereo partly drawn) [Example 213, (3R)-3-(2-(2-chloro-5-fluoro-3,4-dihydroxyphenyl)-2-(2,3-dioxo-4-(3-(3-(pyridin-3-yl)ureido)propyl)piperazine-1-carboxamido)acetamido)-7-fluoro-2-hydroxy-3,4-dihydro-2H-benzo[e][1,2]oxaborinine-8-carboxylic acid]", "values": [
      {"measurement": "MIC", "setting": "N. gonorrhoeae MS11", "result": "16 to 32", "unit": "µg/mL"},
      {"measurement": "MIC", "setting": "A. baumannii CDC-0033", "result": "8 to 16", "unit": "µg/mL"},
      {"measurement": "MIC", "setting": "P. aeruginosa CDC-0054", "result": "2 to 4", "unit": "µg/mL"},
      {"measurement": "MIC", "setting": "A. baumannii ATCC 17978", "result": "< 1", "unit": "µg/mL"},
      {"measurement": "MIC", "setting": "N. gonorrhoeae WHO Z", "result": "> 64", "unit": "µg/mL"},
      {"measurement": "EC50", "setting": "[1]", "result": "< 10", "unit": "µM"},
      {"measurement": "MIC", "setting": "[2]", "result": "< 1", "unit": "µg/mL"},
      {"measurement": "MIC", "setting": "N. gonorrhoeae WHO K", "result": "> 64", "unit": "µg/mL"},
      {"measurement": "MIC", "setting": "P. aeruginosa ATCC 27853", "result": "2 to 4", "unit": "µg/mL"},
      {"measurement": "MIC", "setting": "N. gonorrhoeae WHO L", "result": "> 64", "unit": "µg/mL"},
      {"measurement": "MIC", "setting": "N. gonorrhoeae FA1090", "result": "1 to 2", "unit": "µg/mL"},
      {"measurement": "MIC", "setting": "P. aeruginosa CDC-0110", "result": "< 1", "unit": "µg/mL"},
      {"measurement": "MIC", "setting": "P. aeruginosa CDC-0095", "result": "< 1", "unit": "µg/mL"},
      {"measurement": "MIC", "setting": "A. baumannii CDC-0036", "result": "2 to 4", "unit": "µg/mL"}
    ]},
    {"smiles": "CN(CCN1CCN(C(=O)N[C@@H](C(=O)N[C@H]2Cc3ccc(F)c(C(=O)O)c3OB2O)c2cc(F)c(O)c(O)c2Cl)C(=O)C1=O)Cc1ccc(N)nc1", "note": "[Example 209, (R)-3-((R)-2-(4-(2-(((6-aminopyridin-3-yl)methyl)(methyl)amino)ethyl)-2,3-dioxopiperazine-1-carboxamido)-2-(2-chloro-5-fluoro-3,4-dihydroxyphenyl)acetamido)-7-fluoro-2-hydroxy-3,4-dihydro-2H-benzo[e][1,2]oxaborinine-8-carboxylic acid]", "values": [
      {"measurement": "MIC", "setting": "N. gonorrhoeae MS11", "result": "4 to 8", "unit": "µg/mL"},
      {"measurement": "MIC", "setting": "A. baumannii CDC-0033", "result": "2 to 4", "unit": "µg/mL"},
      {"measurement": "MIC", "setting": "P. aeruginosa CDC-0054", "result": "2 to 4", "unit": "µg/mL"},
      {"measurement": "MIC", "setting": "A. baumannii ATCC 17978", "result": "< 1", "unit": "µg/mL"},
      {"measurement": "MIC", "setting": "N. gonorrhoeae WHO Z", "result": "16 to 32", "unit": "µg/mL"},
      {"measurement": "EC50", "setting": "[1]", "result": "< 10", "unit": "µM"},
      {"measurement": "MIC", "setting": "[2]", "result": "< 1", "unit": "µg/mL"},
      {"measurement": "MIC", "setting": "N. gonorrhoeae WHO K", "result": "> 64", "unit": "µg/mL"},
      {"measurement": "MIC", "setting": "P. aeruginosa ATCC 27853", "result": "< 1", "unit": "µg/mL"},
      {"measurement": "MIC", "setting": "N. gonorrhoeae WHO L", "result": "> 64", "unit": "µg/mL"},
      {"measurement": "MIC", "setting": "N. gonorrhoeae FA1090", "result": "1 to 2", "unit": "µg/mL"},
      {"measurement": "MIC", "setting": "P. aeruginosa CDC-0110", "result": "< 1", "unit": "µg/mL"},
      {"measurement": "MIC", "setting": "P. aeruginosa CDC-0095", "result": "< 1", "unit": "µg/mL"},
      {"measurement": "MIC", "setting": "A. baumannii CDC-0036", "result": "2 to 4", "unit": "µg/mL"}
    ]},
    {"smiles": "CN(CCN1CCN(C(=O)N[C@@H](C(=O)N[C@H]2Cc3ccc(F)c(C(=O)O)c3OB2O)c2cc(F)c(O)c(O)c2Cl)C(=O)C1=O)Cc1cncc(O)c1", "note": "[Example 208, (R)-3-((R)-2-(2-chloro-5-fluoro-3,4-dihydroxyphenyl)-2-(4-(2-(((5-hydroxypyridin-3-yl)methyl)(methyl)amino)ethyl)-2,3-dioxopiperazine-1-carboxamido)acetamido)-7-fluoro-2-hydroxy-3,4-dihydro-2H-benzo[e][1,2]oxaborinine-8-carboxylic acid]", "values": [
      {"measurement": "MIC", "setting": "N. gonorrhoeae MS11", "result": "4 to 8", "unit": "µg/mL"},
      {"measurement": "MIC", "setting": "A. baumannii CDC-0033", "result": "2 to 4", "unit": "µg/mL"},
      {"measurement": "MIC", "setting": "P. aeruginosa CDC-0054", "result": "2 to 4", "unit": "µg/mL"},
      {"measurement": "MIC", "setting": "A. baumannii ATCC 17978", "result": "< 1", "unit": "µg/mL"},
      {"measurement": "MIC", "setting": "N. gonorrhoeae WHO Z", "result": "16 to 32", "unit": "µg/mL"},
      {"measurement": "EC50", "setting": "[1]", "result": "< 10", "unit": "µM"},
      {"measurement": "MIC", "setting": "[2]", "result": "< 1", "unit": "µg/mL"},
      {"measurement": "MIC", "setting": "N. gonorrhoeae WHO K", "result": "16 to 32", "unit": "µg/mL"},
      {"measurement": "MIC", "setting": "P. aeruginosa ATCC 27853", "result": "< 1", "unit": "µg/mL"},
      {"measurement": "MIC", "setting": "N. gonorrhoeae WHO L", "result": "> 64", "unit": "µg/mL"},
      {"measurement": "MIC", "setting": "N. gonorrhoeae FA1090", "result": "1 to 2", "unit": "µg/mL"},
      {"measurement": "MIC", "setting": "P. aeruginosa CDC-0110", "result": "< 1", "unit": "µg/mL"},
      {"measurement": "MIC", "setting": "P. aeruginosa CDC-0095", "result": "< 1", "unit": "µg/mL"},
      {"measurement": "MIC", "setting": "A. baumannii CDC-0036", "result": "2 to 4", "unit": "µg/mL"}
    ]}
  ]
}
